pIC50: −log10 of the molar value.
Key:
[1] = target: VIM-1 (Pseudomonas aeruginosa (strain ATCC 15692 / DSM 22644 / CIP 104116 / JCM 14847 / LMG 12228 / 1C / PRS 101 / PAO1), UniProt A0A0F7KYQ8); assay: Enzyme activity: determination of IC50, fluorescence assay with CCF2-FA substrate (VIM-1); format: biochemical; settings: VIM-1 IC50, fluorescence assay with CCF2-FA substrate
[2] = target: NDM-1 (Klebsiella pneumoniae, UniProt C7C422); assay: biochemical; format: biochemical; settings: fluorescence assay with CCF2-FA substrate; read-out: NDM-1 IC50
Chain of NDM-1 (C7C422 whole entry, looked up, species assumed): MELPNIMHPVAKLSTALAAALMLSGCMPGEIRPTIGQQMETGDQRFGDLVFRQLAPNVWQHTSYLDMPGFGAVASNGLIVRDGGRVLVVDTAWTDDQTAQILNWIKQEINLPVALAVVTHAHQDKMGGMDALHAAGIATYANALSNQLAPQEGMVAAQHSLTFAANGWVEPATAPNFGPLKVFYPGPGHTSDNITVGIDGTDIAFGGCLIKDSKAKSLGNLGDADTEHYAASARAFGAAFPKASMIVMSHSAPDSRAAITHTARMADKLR

[3] = target: IMP-1 (Serratia marcescens, UniProt P52699); assay: biochemical; format: biochemical; settings: fluorescence assay with CCF2-FA substrate; read-out: IMP-1 IC50
Chain of IMP-1 (P52699 whole entry, looked up): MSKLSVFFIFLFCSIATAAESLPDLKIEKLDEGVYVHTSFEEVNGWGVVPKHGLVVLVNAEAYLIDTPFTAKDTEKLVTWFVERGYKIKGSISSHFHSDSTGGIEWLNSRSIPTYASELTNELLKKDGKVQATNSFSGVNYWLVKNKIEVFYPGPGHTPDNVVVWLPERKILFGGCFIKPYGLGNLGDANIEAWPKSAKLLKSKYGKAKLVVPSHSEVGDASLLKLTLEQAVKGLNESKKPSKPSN

[4] = tested on: Klebsiella pneumoniae expressing VIM-1 (IHMA599644); assay: Antibiotic potentiation activity: synergistic concentration (MITC95) with imipenem, OD600 growth; format: cell-based; settings: concentration giving 95% inhibition of bacterial growth
How it was run: (§1)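 Overnight colonies (35 °C) were suspended in saline, diluted 1:100 into 1.1× CAMHB, and exposed to test compound with imipenem at 4 μg/ml (optionally 1 μg/ml) in assay. After 22–24 h at 35 °C, growth was read by absorbance.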

[5] = tested on: Escherichia coli expressing NDM-1 (CLB30005); assay: as above; format: cell-based; settings: concentration giving 95% inhibition of bacterial growth
How it was run: as §1

[6] = tested on: Serratia marcescens expressing IMP-1 (CL5741); assay: as above; format: cell-based; settings: concentration giving 95% inhibition of bacterial growth
How it was run: as §1

[7] = tested on: Escherichia coli expressing NDM-1 (CLB30016); assay: as above; format: cell-based; settings: concentration giving 95% inhibition of bacterial growth
How it was run: as §1

CN(C)CCCOc1ccc(-c2cccc(S(N)(=O)=O)c2-c2nn[nH]n2)cn1 [Example 30, 3-(6-(3-(dimethylamino)propoxy)pyridin-3-yl)-2-(2H-tetrazol-5-yl)benzenesulfonamide]
pIC50 [1]: 6.06 | pIC50 [2]: 6.88 | pIC50 [3]: 5.78 | Klebsiella pneumoniae expressing VIM-1 (IHMA 599644) MITC95 [4]: 200 µM | Escherichia coli expressing NDM-1 (CLB 30005) MITC95 [5]: 3.125 µM | Serratia marcescens expressing IMP-1 (CL5741) MITC95 [6]: 50 µM | Escherichia coli expressing NDM-1 (CLB 30016) MITC95 [7]: 1.563 µM

Source: patent publication US9708336B2, “Metallo-beta-lactamase inhibitors” (priority 2014, dated 2017)
